Test results taken from PubChem BioAssay AID624167 (Sanford-Burnham Center for Chemical Genomics, 2012).
pIC50: −log10 of the molar value. Active and inactive are the calls of the source.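 The calls were made as follows: active = mean IC50 for reducing PEG3 promoter reporter signal at or below a set limit, with IC50 above the limit in both counter screens; inactive = the rest, including counter screen hits.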

Tests used:
PEG-3 [1] = molecular target: PEG-3 (UniProt Q6IN02); assay: inhibition of PEG-3 promoter-driven reporter – cell-based, HeLa, luciferase, CREF/GAPDH counter-screen panel, dose response (AID 624167); conditions: HeLa PEG-Prom luciferase reporter, overnight, CREF/GAPDH counter-screens, mean of runs
Sequence of PEG-3 (UniProt Q6IN02) (Q6IN02 whole entry, looked up): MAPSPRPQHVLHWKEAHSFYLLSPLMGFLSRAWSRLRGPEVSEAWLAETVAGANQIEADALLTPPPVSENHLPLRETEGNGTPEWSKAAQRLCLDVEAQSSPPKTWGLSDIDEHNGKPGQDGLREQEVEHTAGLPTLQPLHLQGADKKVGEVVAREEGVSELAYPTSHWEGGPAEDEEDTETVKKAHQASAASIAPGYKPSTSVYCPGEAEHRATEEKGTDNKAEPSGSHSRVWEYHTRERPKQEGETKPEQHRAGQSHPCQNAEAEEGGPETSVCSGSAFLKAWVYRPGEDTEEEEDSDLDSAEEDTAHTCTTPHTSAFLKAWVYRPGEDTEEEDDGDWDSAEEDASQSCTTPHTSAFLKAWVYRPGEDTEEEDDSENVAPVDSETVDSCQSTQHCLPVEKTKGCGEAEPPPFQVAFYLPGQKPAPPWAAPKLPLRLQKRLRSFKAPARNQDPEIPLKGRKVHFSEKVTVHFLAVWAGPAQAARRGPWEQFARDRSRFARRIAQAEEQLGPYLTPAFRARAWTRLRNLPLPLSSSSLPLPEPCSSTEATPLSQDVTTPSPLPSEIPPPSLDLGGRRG

PEG-3 [2] = assay: as above; conditions: HeLa PEG-Prom luciferase reporter, overnight, CREF/GAPDH counter-screens
[3] = run 1, dose range 1, individual replicate IC50 per panel
[4] = run 2, dose range 1, individual replicate IC50 per panel

Compound	pIC50 (PEG-3 [1])	pIC50 (PEG-3 [2]; [3])	pIC50 (PEG-3 [2]; [4])	IC50 (PEG-3 [1])
CCCCCCCCNCCS(=O)(=O)NCc1ccc(OC)cc1	4.74	4.75	4.74	
COc1ccc(CNCCC(c2ccccc2)c2ccc(OC(C)C)cc2)cc1OC (centres undefined)	4.73	4.74	4.71	
CC(C)c1ccc(-c2nc3ccccc3s2)cc1		4.85	4.40	inactive
CCn1cc(CN2CCC(C(=O)Nc3cccc(-c4cccc(Cl)c4)c3)CC2)cn1	4.77	4.72	4.84	
Cc1ccc(C(=O)N/C(=C\c2ccc(-c3cccc([N+](=O)[O-])c3)o2)C(=O)NCCCN(C)C)cc1	4.77	4.73	4.82	
CCC(C)Sc1ccc(-c2nc3ccccn3c2NCc2ccccc2)cc1OC (centres undefined)		4.42	4.69	inactive
COC(=O)c1cc(=O)n(Cc2ccco2)c(=Nc2ccc(F)cc2)s1	4.75	4.75	4.75	
N/C(=N\OC(=O)c1ccccc1)C(C(=O)NOC(=O)c1ccccc1)C1CCCCC1 (centres undefined)		4.61	< 4.00	inactive
Cc1ccc(CC2(OCCN(C)C)CCC(C(C)(C)C)CC2)cc1 (centres undefined)	4.77	4.72	4.84	
Cc1nn(-c2ccccc2Cl)c(Cl)c1/C=N/Nc1nc2ccccc2s1	> 6.70	> 6.70	> 6.70	
Cc1cc(C)nc(NC(=O)c2c(F)c(F)c(F)c(C(=O)Nc3cc(C)cc(C)n3)c2F)c1	4.70	4.70	4.71	
O=S(=O)(N[C@H]1C[C@@H](NS(=O)(=O)OCC(Cl)(Cl)Cl)C2CCCCC21)OCC(Cl)(Cl)Cl (some centres undefined)	4.90	4.82	5.01	
Cc1c(C#N)c(N)nc2c3c(sc12)NC(=O)CC3c1ccc(Cl)cc1 (centres undefined)	4.85	4.76	4.96	
CNCC(O)c1cc(OCc2ccccc2)c(OCc2ccccc2)cc1F (centres undefined)	4.73	4.68	4.79	
CNCC[C@H](Oc1cccc2ccccc12)c1cccs1	4.75	4.73	4.78	
COc1ccc2c(c1OC)C(=O)N1c3ccccc3C(=O)N(c3ccccc3F)C21 (centres undefined)	4.87	4.82	4.93	
COc1cccc(NC(=O)CN(C)C(=O)c2cccnc2Nc2cccc(C(F)(F)F)c2)c1		4.65	4.62	inactive

Compound	pIC50 (PEG-3 [1])	pIC50 (PEG-3 [2]; [3])	pIC50 (PEG-3 [2]; [4])	IC50 (PEG-3 [1])
O=C(Cc1csc(Nc2nc(=S)[nH]c3ccccc23)n1)NCc1ccccc1Cl		< 4.00	< 4.00	> 100 µM (inactive)
O=C(C[C@H]1C[C@H](C(=O)N2CCCCC2)[C@@]2(CCc3ccccc3)c3[nH]c4ccc(Cl)cc4c3CCN2C1=O)NCCc1ccccn1		4.75	4.59	inactive
NC(N)=N/N=C/c1cccc(Cl)c1Cl	4.80	4.76	4.84	
c1ccc(CCCNCCCn2cnc3c(OCc4ccccc4)ncnc32)cc1		4.46	4.71	inactive
CCC1CCCCN1S(=O)(=O)c1ccc(C(=O)N(CCCN(C)C)c2nc3cc4c(cc3s2)OCO4)cc1 (centres undefined)		4.66	4.30	inactive
CN(C)CCNc1ncnc2c1ncn2[C@H]1CN(Cc2ccc(-c3ccccc3)cc2)C[C@@H](CO)O1		4.51	4.76	inactive
CCOC(=O)C1=C(COCCN)NC(C)=C(C(=O)OC)C1c1ccccc1Cl (centres undefined)	4.81	4.72	4.92	
O=c1cc2oc3cc(O)c(O)cc3c(-c3ccccc3[N+](=O)[O-])c-2cc1O	4.72	4.72	4.72	
Cc1ccccc1CN1Cc2cnnn2-c2ccccc2C1C#N (centres undefined)	4.86	4.81	4.92	
COc1cccc(Nc2nc(C(N)C3CCCCC3)cs2)n1 (centres undefined)		4.66	4.32	inactive
COc1ccc(CN(C)C(=O)c2cc(-c3ccccc3)nc3ccc(C)cc23)c(OC)c1OC		4.48	4.63	inactive
C[C@@H](C(=O)Nc1ccc2c(c1)OCCO2)n1c(=O)[nH]c2ccccc2c1=O		4.93	< 4.00	inactive
COc1ccc(CCNC(=O)c2cc3c(=O)n4ccccc4nc3n(C3CCCCC3)c2=N)cc1		< 4.00	< 4.00	> 100 µM (inactive)
COc1cccc2c1C(=N)c1c(O)c3c(c(O)c1C2=O)CC(O)(C(C)=O)CC3OC1CC(N)C(O)C(C)O1 (centres undefined)	4.94	4.80	5.12	
Cc1cccc(NC(=O)CSc2nc3ccccc3c3nc(CCc4c(C)n[nH]c4C)nn23)c1		4.55	4.42	inactive
CNC[C@H](CC1CCCCC1)NC[C@H](NCCC1CCCC1)[C@H](C)O		4.42	4.91	inactive
